Test [1] concerns human multiple myeloma NCI-H929 xenograft tumors. Put plainly: In vivo activity in combination with dexamethasone against NCI-H929 transplanted tumor. The arrangement: species or system NOD/SCID mice. The note with it: each drug 3 mg/kg, QD; for Tumor inhibition rate TGI (%) / Average volume (mm^3) (Day 10) / Initial volume (mm^3): oral gavage, alone or combined; for Tumor inhibition rate TGI (%): 10 consecutive days; for Initial volume (mm^3): baseline. As to the method: In this example, human multiple myeloma NCI-H929 cell line was selected as the cell model to determine the inhibitory effects of compound and dexamethasone alone, as well as combination thereof on the growth of NOD/SCID mouse transplanted tumors of NCI-H929 tumor cells. The evaluation methods and results are described below.
Human multiple myeloma NCI-H929 cells were routinely cultured in RPMI1640 containing 10% fetal bovine serum at 37°C in a 5% CO2 incubator. After three passages in vitro, when the cells reached over 80% confluence and the required confluence rate, the cells were digested and harvested. After washing with PBS, the cells were counted and the cell concentration was adjusted to approximately 5 × 10^7 cells/mL. The cells were then placed in 4 mL centrifuge tubes on ice for later use.
Female NOD/SCID mice aged 4-5 weeks were selected and subcutaneously inoculated with NCI-H929 cells ectopically. The mice were held in a lateral position, the forelimb axilla was disinfected with 75% alcohol, and 100 µL of the cell suspension was injected subcutaneously into the axilla using a 1 mL syringe ([…]/100 µL).
After the tumors grew to 90-150 mm^3, the animals were randomly divided into groups, 8 mice in each group, and administered according to different administration methods as follows: • Model control group: Administered with the same volume of Vehicle (DMSO: 0.5% sodium carboxymethyl cellulose: distilled water = 1:1:8) daily by gavage; • Test group 1: administered with dexamethasone (Dex) solution at 3 mg/kg (mouse body weight) daily by gavage; • Test group 2: administered with I-4 solution at 3 mg/kg (mouse body weight) daily by gavage; • Test group 3: administered with I-8 solution at 3 mg/kg (mouse body weight) daily by gavage; • Test group 4: administered with dexamethasone at 3 mg/kg (mouse body weight) and 1-4 solution at 3 mg/kg (mouse body weight) daily by gavage; • Test group 5: administered with dexamethasone at 3 mg/kg (mouse body weight) and I-8 solution at 3 mg/kg (mouse body weight) daily by gavage;
(§1) The route of administration was oral gavage, and the administration frequency was once daily, for 10 consecutive days. The first day of administration was defined as Day 1 of the experiment. Tumor volume changes in mice were measured and recorded every two days. Tumor volume was measured using a vernier caliper, in which the major axis (a) and minor axis (b) of the tumor were measured, and the tumor volume was calculated as tumor volume V (mm^3) = a x b^2/2. After the experiment, the mice were dissected and the tumor weight was measured. The data were entered and statistically analyzed using GraphPad Prism 6 software. The data are expressed as mean ± SEM (Standard Error of Mean), and one-way ANOVA was used. P ≤ 0.05 was considered statistically significant.

The test system of test [2] is human multiple myeloma RPMI-8226 xenograft tumors. The test is described as follows: In vivo activity against RPMI-8226 transplanted tumor. The arrangement: species or system NOD/SCID mice. Conditions: 10 mg/kg, QD; for Tumor inhibition rate TGI (%) / Volume (mm^3), 0 days / Volume (mm^3), 12 days: oral gavage; for Tumor inhibition rate TGI (%): 12 consecutive days; for Volume (mm^3), 0 days: tumor volume at 0 days (baseline); for Volume (mm^3), 12 days: tumor volume at 12 days. The protocol:
In this example, human multiple myeloma RPMI-8226 cell line was used as the cell model. The inhibitory effects of compounds on the growth of NOD/SCID mouse transplanted tumors of RPMI-8226 tumor cells were determined. The evaluation methods and results are described below.
Human multiple myeloma RPMI-8226 cells were routinely cultured in RPMI1640 containing 10% fetal bovine serum at 37°C in a 5% CO2 incubator. After three passages in vitro, when the cells reached over 80% confluence and the required confluence rate, the cells were digested and harvested. After washing with PBS, the cells were counted and the cell concentration was adjusted to approximately 5 × 10^7 cells/mL. The cells were then placed in 4 mL centrifuge tubes on ice for later use.
Female NOD/SCID mice aged 4-5 weeks were selected and subcutaneously inoculated with RPMI-8226 cells ectopically. The mice were held in a lateral position, the forelimb axilla was disinfected with 75% alcohol, and 100 µL of the cell suspension was injected subcutaneously into the axilla using a 1 mL syringe ([…]/100 µL).
Once the tumors grew to 90-150 mm^3, the animals were randomly grouped, 8 mice per group, and administered according to different administration methods as follows: • Model control group: administered with the same volume of Vehicle (DMSO: 0.5% sodium carboxymethyl cellulose: distilled water = 1:1:8) daily by gavage; • Test groups: administered with compound I-4 and compound I-8 solutions at 10 mg/kg (mouse body weight) daily by gavage, respectively; • Positive control group: administered with pomalidomide solution at 10 mg/kg (mouse body weight) daily by gavage.
as §1, with “for 12” for “for 10”, “calculated as:” for “calculated as”

Regarding `CN1Cc2c(N)cccc2C(=O)N1C1CCC(=O)NC1=O` (stereo not shown) [I-4, 3-(5-amino-3-methyl-1-oxo-3,4-dihydrophthalazin-2(1H)-yl)piperidin-2,6-dione], in test [1], the “growth of NCI-H929 transplanted tumors (in words)” value is “effectively inhibit the growth”, the “Tumor inhibition rate TGI (%)” value is 68.03%, the “Average volume (mm^3) (Day 10)” value is given as 689.9 mm^3 and the “Initial volume (mm^3)” value is 183.9 mm^3. Also, in test [2], the “growth of RPMI-8226 transplanted tumors (in words)” value is “significantly inhibit the growth”; the “Tumor inhibition rate TGI (%)” value is on record as 73.38%; the “Volume (mm^3), 0 days” value worked out at 189.0 mm^3; the “Volume (mm^3), 12 days” value came out at 541.1 mm^3.
In the case of `CN1Cc2c(NCc3ccc(CN4CCN(c5ccc(C#N)c(F)c5)CC4)cc3)cccc2C(=O)N1C1CCC(=O)NC1=O` (stereo not shown) [I-8], in test [1], the “growth of NCI-H929 transplanted tumors (in words)” value is “effectively inhibit the growth”, the “Tumor inhibition rate TGI (%)” value amounted to 82.64%, the “Average volume (mm^3) (Day 10)” value is recorded as 458.1 mm^3 and the “Initial volume (mm^3)” value was 183.3 mm^3. In addition, in test [2], the “growth of RPMI-8226 transplanted tumors (in words)” value is “significantly inhibit the growth”; the “Tumor inhibition rate TGI (%)” value was found to be 80.13%; the “Volume (mm^3), 0 days” value turned out to be 257.5 mm^3; the “Volume (mm^3), 12 days” value came out at 520.3 mm^3.
Consider `Nc1cccc2c1C(=O)N(C1CCC(=O)NC1=O)C2=O` (stereo not shown) [Pomalidomide, reference compound], for which, in test [2], the “Tumor inhibition rate TGI (%)” value is recorded as 47.80%; the “Volume (mm^3), 0 days” value worked out at 180.0 mm^3; the “Volume (mm^3), 12 days” value was 870.4 mm^3.

The record behind these values is EP4722203A1, “3,4-DIHYDROPHTHALAZIN-1(2H)-ONE DERIVATIVE, AND PREPARATION METHOD THEREFOR AND USE THEREOF” (Academy of Military Medical Sciences, priority 2023, dated 2024).
